This is an account of results in PMC12675387, “Receptor interaction profiles of 4-alkoxy-2,6-dimethoxyphenethylamines (Ψ derivatives) and related amphetamines” (Frontiers in Pharmacology, 2025).

As a reminder, the EC50 is the concentration at which the effect is half-maximal. Usually Emax stands for the size of the effect at its maximum, as opposed to the concentration needed. Usually Ki stands for a measure of affinity in units of concentration, obtained from inhibition or displacement. A low value points to a stronger hold on the target.

For one assay, the target named is T1, human 5-HT2A receptor (Homo sapiens, UniProt P28223).
T1 construct: expressed in transfected cells; host or cells: NIH-3T3 mouse embryonic fibroblasts
Briefly: Activation potency and efficacy at the 5-HT2A receptor (FLIPR calcium, NIH-3T3 cells). Format: cell-based. Particulars: for Emax: NIH3T3, relative to 5-HT (100%), read-out: h5-HT2A activation efficacy Emax ± SD. Here is the method:
The activation potency and efficacy at the 5-HT2A receptor were determined as previously described by [Luethi et al. (2018)]. In short, mouse embryonic fibroblasts (NIH-3T3 cells) stably transfected with the human 5-HT2A receptor were seeded in poly-D-lysine-coated 96 well plates at a density of 70,000 cells per 100 μL. Next, the cells were incubated in HEPES-Hank’s Balanced Salt Solution (HBSS) buffer (Gibco) for 1 h at 37 °C; the cells were then incubated with 100 μL of dye solution (fluorescence imaging plate reader [FLIPR] calcium 5 assay kit; Molecular Devices, Sunnyvale, CA, United States) per well for 1 h at 37 °C. The plate was then inserted into the FLIPR and 25 μL of the test compounds diluted in HEPES-HBSS buffer containing […] probenecid were added online. Increase of the fluorescence signal was measured and the activation potency (EC50) was calculated from the dose-response curves using nonlinear regression. The activation efficacy was calculated relative to 5-HT activity (defined as 100% activity).

For the next assay, the target named is T2, human 5-HT2B receptor (Homo sapiens, UniProt P41595).
T2 construct: expressed in transfected cells; host or cells: HEK 293 cells
Kind of assay: Activation potency and efficacy at the 5-HT2B receptor (Fluo-4 calcium, HEK 293 cells). To be noted: for Emax: HEK293, relative to 5-HT (100%), read-out: h5-HT2B activation efficacy Emax ± SD. Format: cell-based. Here is the method: The activation potency and efficacy at the 5-HT2B receptor were determined as previously described by [Luethi et al. (2018)]. In summary, HEK 293 cells stably transfected with the human 5-HT2B receptor were seeded in poly-D-lysine-coated 96 well plates at a density of 50,000 cells per well overnight at 37 °C in high glucose Dulbecco’s modified Eagle’s medium (DMEM; Invitrogen, Zug, Switzerland) supplemented with 10% fetal calf serum (non-dialyzed and heat-inactivated), 250 mg/L Geneticin, and 100 U/mL penicillin, and 100 μg/mL streptomycin (Gibco). The growth medium was removed by snap inversion and the cells were exposed to 100 μL calcium indication Fluo-4-solution (Molecular Probes, Eugene, OR, United States) for 45 min at 31 °C. Thereafter, the Fluo-4-solution was removed once again by snap inversion and was replaced with fresh 100 μL Fluo-4-solution. Next, the cells were washed with HBSS and 20 mM HEPES using the EMBLA cell washer and then exposed to the assay buffer (100 μL per well). Afterwards, 25 μL of test compounds diluted in assay buffer were added to the plate online. Dose–response curves were determined using nonlinear regression and EC50 values were calculated. The activation efficacy was calculated relative to the 5-HT activity (defined as 100%).

The target of another assay is T3, human TAAR1 (Homo sapiens, UniProt Q96RJ0).
T3 construct: expressed in transfected cells; host or cells: HEK 293 cells
T3 sequence (Q96RJ0 1-339): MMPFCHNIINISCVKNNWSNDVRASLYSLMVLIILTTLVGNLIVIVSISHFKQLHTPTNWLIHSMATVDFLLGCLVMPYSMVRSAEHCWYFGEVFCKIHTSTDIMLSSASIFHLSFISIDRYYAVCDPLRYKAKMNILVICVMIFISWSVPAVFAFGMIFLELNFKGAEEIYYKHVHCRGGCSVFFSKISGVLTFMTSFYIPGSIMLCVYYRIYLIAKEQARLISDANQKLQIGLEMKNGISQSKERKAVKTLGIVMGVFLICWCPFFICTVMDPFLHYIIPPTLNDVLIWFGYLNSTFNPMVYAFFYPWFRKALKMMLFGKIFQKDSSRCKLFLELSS
Briefly: Activation potency at human TAAR1 (cAMP assay, HEK 293 cells). The class given is cell-based. As to the method:
The activation potency at the human TAAR1 was determined as previously described by [Luethi et al. (2018)]. In summary, recombinant HEK 293 cells stably transfected with the human TAAR1 were grown in culture flasks composed of 30 mL high glucose DMEM with 10% heat inactivated fetal calf serum, […] Geneticin, and […] hygromycin B at 37 °C and 5% CO2. The cells were grown to 80%–90% confluency before collection. The cells were washed with phosphate-buffer saline (PBS) and 5 mL of trypsin/EDTA solution were added for 5 min at 37 °C to detach the cells from the flask. Then, 45 mL of fresh medium were added to the flask and the total mixture was put into a falcon tube, which was centrifuged for 3 min at 900 rpm at room temperature. The supernatant was aspirated, and the remaining cell pellet was resuspended in fresh medium to a concentration of 5 × 10^5 cells per mL. Next, 100 μL of the cell mixture was transferred to a 96 well plate (BIOCOAT 6640, Becton Dickinson, Allschwil, Switzerland) and incubated for 20 h at 37 °C. For the cAMP assay, the medium was removed and replaced with 50 μL PBS lacking calcium or magnesium ions. The PBS was extracted via snap inversion and the plate was gently tapped on tissue to remove any remaining PBS solution. The plate was then incubated with Krebs-Ringer Bicarbonate buffer (90 μL/well; KRB, Sigma-Aldrich) containing 1 mM IBMX for 1 h at 37 °C and 5% CO2/95% air. Test compounds were investigated in duplicate at various concentrations ranging from 300 pM to 30 μM. A cAMP standard curve (concentration range of 0.13 nM–10 μM) was included on each 96 well plate. Additionally, a reference plate was used containing RO5256390, β-phenylethylamine and p-tyramine. Cells were incubated with either 30 μL of compound solution, β-phenylethylamine (which represented the maximal response) or a basal control in PBS (supplemented with 1 mM IBMX) for 40 min at 37 °C. Thereafter, the cells were incubated with 50 μL of 3× detection mix solution (consisting of Ru-cAMP Alexa700 anti-cAMP antibody and lysis buffer) for 40 min at 37 °C, while covered with black lids and under forceful shaking. The fluorescence (456 nm excitation wavelength; 630 and 700 nm emission wavelengths) was measured using a NanoScan reader (Innovate Optische Messtechnik, Berlin, Germany) and the FRET signal was calculated using the following equation: FRET (700 nm) – P × FRET (630 nm). P was equal to Ru (700 nm)/Ru (630 nm).
(In general: Cyclic AMP is a second messenger, typically raised through Gs and lowered through Gi signalling.)

For another assay, the target named is hSERT (Homo sapiens, UniProt P31645). Briefly: Radioligand binding, SERT ([3H]citalopram).
In the next assay the target is h5-HT2A receptor (Homo sapiens, UniProt P28223). Briefly: Radioligand binding, 5-HT2A receptor ([3H]ketanserin). Particulars: for Selectivity (binding ratio) 5-HT2A/5-HT1A: preference for 5-HT2A (Ki 5-HT1A divided by Ki 5-HT2A); for Selectivity (binding ratio) 5-HT2A/5-HT2C: preference for 5-HT2A (Ki 5-HT2C divided by Ki 5-HT2A); for fold difference in 5-HT2A receptor affinity between Ψ derivative and its 2,4,5-trisubstituted counterpart: TMA-6 vs TMA-2, Ψ-2C-O-16 vs 2C-O-16, Ψ-MALM vs MALM: higher affinity of the Ψ derivative.
Sequence of h5-HT2A receptor (P28223 whole entry): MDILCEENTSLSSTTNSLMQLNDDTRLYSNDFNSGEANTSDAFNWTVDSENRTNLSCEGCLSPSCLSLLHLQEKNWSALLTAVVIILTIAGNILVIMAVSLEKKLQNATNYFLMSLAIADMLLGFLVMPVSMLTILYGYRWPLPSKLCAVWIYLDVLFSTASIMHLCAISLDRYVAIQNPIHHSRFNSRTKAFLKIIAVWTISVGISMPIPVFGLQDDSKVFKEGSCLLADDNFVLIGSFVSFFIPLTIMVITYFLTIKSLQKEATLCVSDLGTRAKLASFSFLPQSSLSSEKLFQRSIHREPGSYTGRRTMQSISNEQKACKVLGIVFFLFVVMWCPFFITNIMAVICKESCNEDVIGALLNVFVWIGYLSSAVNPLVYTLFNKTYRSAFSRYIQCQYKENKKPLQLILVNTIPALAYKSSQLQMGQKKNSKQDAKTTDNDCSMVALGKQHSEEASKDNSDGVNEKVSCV

T1 sequence (P28223 whole entry): as above
Sequence of hSERT (P31645 whole entry): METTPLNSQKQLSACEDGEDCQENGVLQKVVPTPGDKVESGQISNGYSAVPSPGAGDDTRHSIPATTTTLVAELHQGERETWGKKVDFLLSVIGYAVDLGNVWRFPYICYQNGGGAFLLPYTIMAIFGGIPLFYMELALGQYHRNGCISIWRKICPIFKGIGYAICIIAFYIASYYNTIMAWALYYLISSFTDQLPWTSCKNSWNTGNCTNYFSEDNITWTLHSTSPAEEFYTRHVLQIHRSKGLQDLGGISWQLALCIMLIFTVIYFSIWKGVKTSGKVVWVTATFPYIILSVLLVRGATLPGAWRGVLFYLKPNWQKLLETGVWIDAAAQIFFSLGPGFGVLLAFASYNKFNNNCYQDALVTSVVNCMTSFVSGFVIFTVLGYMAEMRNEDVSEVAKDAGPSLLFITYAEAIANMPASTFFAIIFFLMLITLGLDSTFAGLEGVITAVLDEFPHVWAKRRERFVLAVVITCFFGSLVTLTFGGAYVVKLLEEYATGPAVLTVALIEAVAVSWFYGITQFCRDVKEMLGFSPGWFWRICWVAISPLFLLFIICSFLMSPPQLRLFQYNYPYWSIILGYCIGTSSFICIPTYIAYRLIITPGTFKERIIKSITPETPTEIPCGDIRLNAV
T2 sequence (P41595 whole entry): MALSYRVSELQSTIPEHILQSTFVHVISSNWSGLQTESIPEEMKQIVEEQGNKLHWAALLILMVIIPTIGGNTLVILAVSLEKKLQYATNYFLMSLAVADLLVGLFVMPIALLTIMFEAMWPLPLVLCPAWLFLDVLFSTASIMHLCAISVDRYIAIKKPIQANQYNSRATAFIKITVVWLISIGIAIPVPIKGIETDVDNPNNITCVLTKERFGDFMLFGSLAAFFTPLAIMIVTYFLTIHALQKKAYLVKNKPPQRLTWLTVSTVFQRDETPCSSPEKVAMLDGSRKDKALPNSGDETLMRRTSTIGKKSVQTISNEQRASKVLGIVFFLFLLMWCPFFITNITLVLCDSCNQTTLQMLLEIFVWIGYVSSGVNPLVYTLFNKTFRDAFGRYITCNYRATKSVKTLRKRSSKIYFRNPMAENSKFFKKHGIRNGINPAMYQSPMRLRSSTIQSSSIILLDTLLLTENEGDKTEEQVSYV

Take `COc1cc(OC)c(CCN)c(OC)c1` [Ψ-2C-O-1, 2,4,6-trimethoxyphenethylamine]: on human 5-HT2A receptor, the EC50 was determined as 110 ± 20 nM and the Emax is 84 ± 13%. Besides, at human 5-HT2B receptor, the EC50 turned out to be 330 ± 250 nM and the Emax came to 22 ± 8%. The compound also gave an EC50 at human TAAR1 of 2300 nM. In addition, the Ki on hSERT (hSERT Ki ± SD, [3H]citalopram) was over 7.5 µM. On h5-HT2A receptor, the Ki was 300 ± 40 nM, the “Selectivity (binding ratio) 5-HT2A/5-HT1A” value came to 3.2 and the “Selectivity (binding ratio) 5-HT2A/5-HT2C” value is given as 4.
In the case of `C=C(C)COc1cc(OC)c(CC(C)N)c(OC)c1` (stereo not drawn) [Ψ-MMALM, 2,6-dimethoxy-4-methallyloxyamphetamine], on human 5-HT2A receptor, the EC50 came out at 58 ± 28 nM, the “type of agonism at the 5-HT2A receptor” value is “partial agonists” and the Emax turned out to be 68 ± 9%. At human 5-HT2B receptor, the EC50 was 93 ± 26 nM and the Emax was 33 ± 11%. Also, the response at human TAAR1 was half-maximal at 2500 nM (EC50). On hSERT (hSERT Ki ± SD, [3H]citalopram), this compound gave a Ki of over 7.5 µM. Moreover, at h5-HT2A receptor, the affinity, expressed as Ki, was 52 ± 10 nM; the “Selectivity (binding ratio) 5-HT2A/5-HT1A” value was over 108; the “Selectivity (binding ratio) 5-HT2A/5-HT2C” value came to 5.6.
In the case of `COc1cc(OCC(F)(F)F)cc(OC)c1CC(C)N` (stereo not drawn) [Ψ-MTFEM, 2,6-dimethoxy-4-(2,2,2-trifluoroethoxy)amphetamine], at human 5-HT2A receptor, the EC50 stood at 1100 nM and the Emax worked out at 33 ± 6%. Also, the EC50 on human 5-HT2B receptor is over 10000 nM. On human TAAR1, the EC50 was 1100 nM. On hSERT (hSERT Ki ± SD, [3H]citalopram), this compound registered a Ki of over 7.5 µM. On h5-HT2A receptor, the Ki amounted to 570 ± 80 nM, the “Selectivity (binding ratio) 5-HT2A/5-HT1A” value is given as over 10 and the “Selectivity (binding ratio) 5-HT2A/5-HT2C” value is 9.6.
For `COc1cc(OCCF)cc(OC)c1CCN` [Ψ-2C-O-21, 2,6-dimethoxy-4-(2-fluoroethoxy)phenethylamine], on human 5-HT2A receptor, the EC50 came out at 32 ± 2 nM, the “fold increase in 5-HT2A activation potency over non-fluorinated counterpart Ψ-2C-O-2” value was 3 fold and the Emax amounted to 55 ± 14%. Besides, the half-maximal effective concentration (EC50) at human 5-HT2B receptor is over 10000 nM. The EC50 at human TAAR1 came out at 80 ± 43 nM. The Ki on hSERT (hSERT Ki ± SD, [3H]citalopram) is over 7.5 µM. Besides, on h5-HT2A receptor, the Ki amounted to 970 ± 190 nM, the “Selectivity (binding ratio) 5-HT2A/5-HT1A” value was 1.6 and the “Selectivity (binding ratio) 5-HT2A/5-HT2C” value was found to be 3.6.
With `COc1cc(OCc2ccccc2)cc(OC)c1CC(C)N` (stereo not drawn) [Ψ-MBnM, 4-benzyloxy-2,6-dimethoxyamphetamine], the EC50 on human 5-HT2A receptor was 430 ± 150 nM; on human 5-HT2B receptor, over 10000 nM; on human TAAR1 it was over 30000 nM. Also, the Emax on human 5-HT2A receptor came to 39 ± 6%. In addition, the Ki was under 7.5 µM on hSERT (SERT Ki, no binding observed); over 7.5 µM at hSERT (hSERT Ki ± SD, [3H]citalopram); 21 ± 2 nM at h5-HT2A receptor. For the same compound, the “Selectivity (binding ratio) 5-HT2A/5-HT2C” value at h5-HT2A receptor stood at 13.
For the compound `C=CCOc1cc(OC)c(CCN)c(OC)c1` [Ψ-2C-O-16, 4-allyloxy-2,6-dimethoxyphenethylamine], at human 5-HT2A receptor, the EC50 came out at 39 ± 19 nM and the Emax is 49 ± 20%. Further, on human 5-HT2B receptor, the EC50 was determined as 91 ± 31 nM and the maximal response (Emax) is 27 ± 8%. At human TAAR1, this compound displayed an EC50 of 34 ± 15 nM. Besides, on hSERT (hSERT Ki ± SD, [3H]citalopram), the Ki was over 7.5 µM. Further, on h5-HT2A receptor, the affinity corresponds to a Ki of 54 ± 4 nM; the “fold difference in 5-HT2A receptor affinity between Ψ derivative and its 2,4,5-trisubstituted counterpart” value was 2–5 fold; the “Selectivity (binding ratio) 5-HT2A/5-HT1A” value is on record as 17; the “Selectivity (binding ratio) 5-HT2A/5-HT2C” value is reported as 9.3.
Consider `COc1cc(OC)c(CC(C)N)c(OC)c1` (stereo not drawn) [TMA-6, 2,4,6-trimethoxyamphetamine], for which, at human 5-HT2A receptor, the EC50 is 70 ± 32 nM and the Emax was 61 ± 12%. Moreover, at human 5-HT2B receptor, the EC50 worked out at 150 ± 20 nM and the Emax is 59 ± 3%. The compound further registered an EC50 at human TAAR1 of over 30000 nM. This compound also showed an inhibition constant Ki at hSERT (hSERT Ki ± SD, [3H]citalopram) of over 7.5 µM. Also, on h5-HT2A receptor, affinity was put at a Ki of 270 ± 18 nM; the “fold difference in 5-HT2A receptor affinity between Ψ derivative and its 2,4,5-trisubstituted counterpart” value is given as 2–5 fold; the “Selectivity (binding ratio) 5-HT2A/5-HT1A” value is reported as over 21; the “Selectivity (binding ratio) 5-HT2A/5-HT2C” value was determined as 6.7.
With `COc1cc(OCC(F)F)cc(OC)c1CC(C)N` (stereo not drawn) [Ψ-MDFEM, 4-(2,2-difluoroethoxy)-2,6-dimethoxyamphetamine], at human 5-HT2A receptor, the concentration for a half-maximal effect (EC50) was found to be 1100 nM and the Emax came to 34 ± 7%. For the same compound, at human 5-HT2B receptor, the EC50 is over 10000 nM. Besides, a half-maximal response at human TAAR1 (EC50) required 850 ± 500 nM. The Ki on hSERT (hSERT Ki ± SD, [3H]citalopram) was over 7.5 µM. At h5-HT2A receptor, the Ki was determined as 950 ± 240 nM, the “Selectivity (binding ratio) 5-HT2A/5-HT1A” value is reported as over 6 and the “Selectivity (binding ratio) 5-HT2A/5-HT2C” value is 10.
